The results in this text go back to publication PMC8342005, “A two-step resin based approach to reveal survivin-selective fluorescent probes” (RSC Chemical Biology, 2020).

Assay [1] addresses T1, survivin (Homo sapiens, UniProt O15392).
T1 construct: gene BIRC5; His6-tagged full length survivin
The assay is described as follows: fluorescence intensity titration of the intrinsically fluorescent ligand with survivin ([…] fit); also CONA bead imaging, affinity resin capture, native PAGE. It counts as binding.

The target in assay [2] is T1, survivin. The assay can be described thus: fluorescence intensity titration of the intrinsically fluorescent ligand with survivin; also CONA bead imaging and affinity resin capture. The class given is binding.

T1 sequence (O15392 whole entry): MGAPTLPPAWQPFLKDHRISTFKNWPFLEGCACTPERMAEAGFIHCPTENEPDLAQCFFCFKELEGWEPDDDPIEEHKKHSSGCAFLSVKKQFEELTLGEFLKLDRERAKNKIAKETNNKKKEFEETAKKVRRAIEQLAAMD

Usually Kd stands for a measure of binding affinity in units of concentration. Read a high Kd as a looser complex. `CCCCCC1=C/C(=C/c2[nH]c(-c3ccc[nH]3)cc2OC)N=C1C` [compound 2, prodigiosin] gave a Kd in assay [1] of 11.5 ± 3.1 µM.

In assay [2], `COc1cc2[nH]c1/C=C1/C=CC(=N1)CCCCCCCCCc1ccc-2[nH]1` [compound 1, cyclononylprodigiosin] displayed a Kd of 149 ± 8.3 µM.
